“And” between values parts separate entries of the source, which are not always exact repeats. Identical values can stand only once. The source made the active and inactive calls. No cut-off for these calls is given here.
What was measured:
[1] = system: Mus musculus; test: Anticonvulsant activity in Kunming mouse assessed as reduction in ScPTZ-induced seizure at 300 mg/kg, ip administered 0.25 to 2 hrs before ScPTZ stimulation relative to control; assay type: functional; set-up: scale not given: the % may be the effect or the level left
[2] = Neurotoxicity against ip dosed Kunming mouse assessed as time remained in rod measured at 0.5 hrs by rotarod test; assay type: toxicity, organism-based; details: in vivo
[3] = system: Mus musculus; test: Anticonvulsant activity in ip dosed Kunming mouse assessed as MES-induced hind limb extension administered 0.5 hrs before MES stimulation; assay type: functional
[4] = system: Mus musculus; test: Anticonvulsant activity in Kunming mouse assessed as reduction in ScPTZ-induced tonic seizure rate at 100 mg/kg, ip administered 0.5 hrs before ScPTZ stimulation relative to control; assay type: functional; set-up: scale not given: the % may be the effect or the level left
[5] = Protective index, ratio of TD50 for neurotoxicity against ip dosed Kunming mouse assessed as time remained in rod measured at 0.5 hrs by rotarod test to ED50 for […] activity in ip dosed Kunming mouse assessed as reduction in formalin-induced paw licking administered 0.5 hrs before formalin stimulation; assay type: toxicity, organism-based; details: in vivo, read-out: PI
[6] = system: Mus musculus; test: Anticonvulsant activity in Kunming mouse assessed as reduction in Sc3-MP-induced seizure at 300 mg/kg, ip administered 0.5 hrs before Sc3-MP stimulation relative to control; assay type: functional; set-up: scale not given: the % may be the effect or the level left
[7] = system: Mus musculus; test: Anticonvulsant activity in Kunming mouse assessed as MES-induced hind limb extension at 100 mg/kg, ip administered 3 hrs before MES stimulation; assay type: functional, organism-based
[8] = Protective index, ratio of TD50 for neurotoxicity against ip dosed Kunming mouse assessed as time remained in rod measured at 0.5 hrs by rotarod test to ED50 for anticonvulsant activity in ip dosed Kunming mouse assessed as MES-induced hind limb extension administered 0.5 hrs; assay type: toxicity, organism-based; details: in vivo, read-out: PI
[9] = system: Mus musculus; test: Anticonvulsant activity in Kunming mouse assessed as reduction in ScPTZ-induced clonic seizure at 100 mg/kg, ip administered 0.5 hrs before ScPTZ stimulation relative to control; assay type: functional; set-up: scale not given: the % may be the effect or the level left
[10] = system: Mus musculus; test: Anticonvulsant activity in ip dosed Kunming mouse assessed as reduction in ScPTZ-induced seizure administered 0.5 hrs before ScPTZ stimulation; assay type: functional
[11] = system: Mus musculus; test: Anticonvulsant activity in Kunming mouse assessed as reduction in ScPTZ-induced clonic seizure at 300 mg/kg, ip administered 0.5 hrs before ScPTZ stimulation relative to control; assay type: functional; set-up: scale not given: the % may be the effect or the level left
[12] = Protective index, ratio of TD50 for neurotoxicity against ip dosed Kunming mouse assessed as time remained in rod measured at 0.5 hrs by rotarod test to ED50 for anticonvulsant activity in ip dosed Kunming mouse assessed as reduction in ScPTZ-induced seizure administered 0.5 hrs before ScPTZ stimulation; assay type: toxicity, organism-based; details: in vivo, read-out: PI
[13] = system: Mus musculus; test: Anticonvulsant activity in Kunming mouse assessed as reduction in ScPTZ-induced mortality rate at 300 mg/kg, ip administered 0.5 hrs before ScPTZ stimulation relative to control; assay type: functional; set-up: scale not given: the % may be the effect or the level left
[14] = species: Homo sapiens; test: Inhibition of human LDH1 at 0.5 mM using sodium pyruvate as substrate by UV-VIS spectrophotometry method relative to control
[15] = system: Mus musculus; test: […] activity in ip dosed Kunming mouse assessed as reduction in formalin-induced paw licking administered 0.5 hrs before formalin stimulation; assay type: functional
[16] = system: Mus musculus; test: Anticonvulsant activity in Kunming mouse assessed as reduction in ScPTZ-induced seizure at 100 mg/kg, ip administered 0.25 and 1 hrs before ScPTZ stimulation relative to control; assay type: functional; set-up: scale not given: the % may be the effect or the level left
[17] = Protective index, ratio of TD50 for neurotoxicity against ip dosed Kunming mouse assessed as time remained in rod measured at 0.5 hrs by rotarod test to ED50 for anticonvulsant activity in ip dosed Kunming mouse assessed as reduction in Sc3-MP-induced seizure administered 0.5 hrs before Sc3-MP stimulation; assay type: toxicity, organism-based; details: in vivo, read-out: PI
[18] = system: Mus musculus; test: Anticonvulsant activity in Kunming mouse assessed as reduction in Sc3-MP-induced mortality rate at 300 mg/kg, ip administered 0.5 hrs before Sc3-MP stimulation relative to control; assay type: functional; set-up: scale not given: the % may be the effect or the level left
[19] = system: Mus musculus; test: Anticonvulsant activity in Kunming mouse assessed as reduction in Sc3-MP-induced tonic seizure rate at 300 mg/kg, ip administered 0.5 hrs before Sc3-MP stimulation relative to control; assay type: functional; set-up: scale not given: the % may be the effect or the level left
[20] = system: Mus musculus; test: Anticonvulsant activity in Kunming mouse assessed as MES-induced hind limb extension at 100 mg/kg, ip administered 0. 5 to 2 hrs before MES stimulation; assay type: functional, organism-based
[21] = system: Mus musculus; test: Anticonvulsant activity in Kunming mouse assessed as reduction in ScPTZ-induced seizure at 100 mg/kg, ip administered 0.25 to 2 hrs before ScPTZ stimulation relative to control; assay type: functional
[22] = system: Mus musculus; test: Anticonvulsant activity in Kunming mouse assessed as MES-induced hind limb extension at 100 mg/kg, ip administered 0. 5 to 4 hrs before MES stimulation relative to control; assay type: functional
[23] = system: Mus musculus; test: Anticonvulsant activity in Kunming mouse assessed as reduction in ScPTZ-induced tonic seizure rate at 300 mg/kg, ip administered 0.5 hrs before ScPTZ stimulation relative to control; assay type: functional; set-up: scale not given: the % may be the effect or the level left
[24] = Neurotoxicity against Kunming mouse assessed as time remained in rod at 100 mg/kg, ip administered 0.5 to 2 hrs by rotarod test; assay type: toxicity, organism-based; details: in vivo
[25] = system: Mus musculus; test: Anticonvulsant activity in Kunming mouse assessed as reduction in Sc3-MP-induced seizure ip dosed measured at 0.5 hrs before Sc3-MP stimulation; assay type: functional
[26] = system: Mus musculus; test: Anticonvulsant activity in Kunming mouse assessed as reduction in Sc3-MP-induced seizure at 300 mg/kg, ip administered 0.25 and 1 hrs before Sc3-MP stimulation relative to control; assay type: functional, organism-based
[27] = system: Mus musculus; test: Anticonvulsant activity in Kunming mouse assessed as reduction in Sc3-MP-induced clonic seizure rate at 300 mg/kg, ip administered 0.5 hrs before Sc3-MP stimulation relative to control; assay type: functional; set-up: scale not given: the % may be the effect or the level left
[28] = species: Homo sapiens; test: Inhibition of human LDH5 at 0.5 mM using sodium pyruvate as substrate by UV-VIS spectrophotometry method relative to control
[29] = system: Mus musculus; test: Anticonvulsant activity in Kunming mouse assessed as MES-induced hind limb extension at 50 mg/kg, ip administered 0.5 and 2 hrs before MES stimulation relative to control; assay type: functional
[30] = system: Mus musculus; test: Anticonvulsant activity in Kunming mouse assessed as MES-induced hind limb extension at 50 mg/kg, ip administered 0.5 to 4 hrs before MES stimulation relative to control; assay type: functional

SMILES | Activity [1] [%] | TD50 at 0.5 h [2] | ED50 [3] | Activity [4] [%] | selectivity ratio at 0.5 h [5] | selectivity ratio at 0.5 h [8] | Activity [9] [%] | ED50 [10] | Activity [11] [%] | selectivity ratio at 0.5 h [12] | Activity [13] [%] | inhibition [14] | ED50 [15] | selectivity ratio at 0.5 h [17] | Activity [19] [%] | Activity [20] | Activity [21] | Activity [22] | Activity [23] [%] | Activity [24] | further results
COc1cc(OC)c(OC)cc1/C=C/COC(=O)/C=C/c1cccc(Br)c1 | 50 | > 2310 µmol/kg and > 1000 mg/kg | 175 µmol/kg and 75.7 mg/kg | 100 | > 8.9 | > 13.2 | 100 | > 200 mg/kg and > 462 µmol/kg | 100 | 5 | 0 | < 5% | 113 mg/kg and 260 µmol/kg | > 4.6 | 50 | Active | inactive | 25 - 100% | 25 | Non-Toxic | Activity [6]: 50%; Activity [7]: Active; Activity [16]: 75%; Activity [18]: 0%; ED50 [25]: 215 mg/kg and 497 µmol/kg; Activity [26]: Active; Activity [27]: 100%; inhibition [28]: < 9%; Activity [29]: inactive
COc1cc(OC)c(OC)cc1/C=C/COC(=O)/C=C/c1ccc(Cl)cc1 | 50 | > 2570 µmol/kg and > 1000 mg/kg | 137 µmol/kg and 53.4 mg/kg | 100 | > 9.3 | > 18.7 | 100 | 142 mg/kg and 364 µmol/kg | 100 | > 7.1 | 0 | < 5% | 108 mg/kg and 278 µmol/kg | > 6.2 | 50 | Active | inactive | 25 - 100% | 25 | Non-Toxic | Activity [6]: 50%; Activity [16]: 75%; ED50 [25]: > 200 mg/kg and > 514 µmol/kg; Activity [26]: Active; Activity [30]: 50%; Activity [27]: 100%; inhibition [28]: < 9%
COc1cc(OC)c(OC)cc1/C=C/COC(=O)/C=C/c1ccccc1Cl | 50 | > 2570 µmol/kg and > 1000 mg/kg | 151 µmol/kg and 58.7 mg/kg | 100 | > 9.9 | > 17 | 100 | 150 mg/kg and 385 µmol/kg | 100 | > 6.7 | 0 | < 5% | 101 mg/kg and 260 µmol/kg | > 4 | 50 | Active | inactive | 25 - 100% | 25 | Non-Toxic | Activity [6]: 50%; Activity [7]: Active; Activity [16]: 75%; Activity [18]: 0%; ED50 [25]: 248 mg/kg and 639 µmol/kg; Activity [26]: Active; Activity [30]: 50%; Activity [27]: 100%; inhibition [28]: < 9%; Activity [29]: 75%
COc1cccc(/C=C/C(=O)OC/C=C/c2cc(OC)c(OC)cc2OC)c1 | 50 | > 1000 mg/kg and > 2600 µmol/kg | 72.9 mg/kg and 190 µmol/kg | 100 | > 8.9 | > 13.7 | 100 | 247 mg/kg and 643 µmol/kg | 100 | > 4.1 | 0 | inactive | > 100 mg/kg and > 260 µmol/kg | > 4 | 75 | Active | inactive | 25 - 100% | 50 | Non-Toxic | Activity [18]: 25%; ED50 [25]: 249 mg/kg and 647 µmol/kg; Activity [27]: 100%; inhibition [28]: inactive; Activity [29]: inactive

— ChEMBL document CHEMBL4311969, “Polygala tenuifolia-Acori tatarinowii herbal pair as an inspiration for substituted cinnamic α-asaronol esters: Design, synthesis, anticonvulsant activity, and inhibition of lactate dehydrogenase study” (Eur J Med Chem, 2019)
